Assay results: ChEMBL document CHEMBL1159105, “Predictive screening model for potential vector-mediated transport of cationic substrates at the blood-brain barrier choline transporter” (Bioorg Med Chem Lett, 2010)

System: not listed separately
Experiment: Inhibition of nAChR-mediated nicotine-induced [3H]dopamine release

**Q.** For Cc1ccc[n+](CCCCCCCCCCCC[n+]2cccc(C)c2)c1, which IC50 is on record?
**A.** The IC50 was 2 nM.

Organism: Rattus norvegicus
Experiment: Inhibition of blood brain barrier choline transporter-mediated [3H]choline uptake in Fischer-344 rat brain at 250 uM by perfusion technique
Type: tissue-based

**Q.** For Cc1cc(C)c[n+](CCCCc2ccc(CCCC[n+]3cc(C)cc(C)c3)cc2)c1, which logKi is on record?
**A.** The logKi was 2.56.

**Q.** For C(#Cc1ccc(C#CCC[n+]2ccc3c(c2)CCCC3)cc1)CC[n+]1ccc2c(c1)CCCC2, which logKi is on record?
**A.** Its logKi is 0.732.

**Q.** With C1#Cc2ccc[n+](c2)CCCCCC[n+]2cccc(c2)C#CCCCCCCCC1 as the molecule, how does the logKi read?
**A.** Its logKi is 1.53.

**Q.** With Cc1cc[n+](CCCc2ccc(-c3ccc(CCC[n+]4ccc(C)c(C)c4)cc3)cc2)cc1C as the molecule, how does the logKi read?
**A.** Its logKi is 1.75.

**Q.** With CC[N+](CC)(CC)CCCCCCCCCCCC[n+]1cccc(C)c1 as the molecule, how does the logKi read?
**A.** Its logKi is 1.34.

**Q.** For C1#Cc2ccc[n+](c2)CCCCCCCCC[n+]2cccc(c2)C#CCCCCCCCC1, which logKi is on record?
**A.** Its logKi is 0.146.

**Q.** Which logKi does the source give for Cc1cc[n+](CCC#Cc2ccc(C#CCC[n+]3ccc(C)cc3)cc2)cc1 here?
**A.** The logKi was 0.929.

**Q.** With Cc1cc(C)c[n+](CCC#Cc2ccc(C#CCC[n+]3cc(C)cc(C)c3)cc2)c1 as the molecule, how does the logKi read?
**A.** Its logKi is 0.867.

**Q.** For c1cc2c([n+](CCCc3ccc(-c4ccc(CCC[n+]5cccc6c5CCCC6)cc4)cc3)c1)CCCC2, which logKi is on record?
**A.** Its logKi is 1.37.

**Q.** With OCCCc1ccc[n+](CCCc2ccc(CCC[n+]3cccc(CCCO)c3)cc2)c1 as the molecule, how does the logKi read?
**A.** Its logKi is 2.09.

**Q.** With C1#Cc2ccc[n+](c2)CCCCCCCCCCC[n+]2cccc(c2)C#CCCCCCCCC1 as the molecule, how does the logKi read?
**A.** The logKi was 1.18.

**Q.** With Cc1cc[n+](CCC#Cc2ccc(C#CCC[n+]3ccc(C)c(C)c3)cc2)cc1C as the molecule, how does the logKi read?
**A.** Its logKi is 0.924.

**Q.** For CCCCC#CCCCCCC[n+]1cccc(C2CCCN2C)c1 (stereo unspecified), which logKi is on record?
**A.** Its logKi is 1.92.

**Q.** For Cc1cc[n+](C#Cc2ccc(-c3ccc(C#C[n+]4ccc(C)c(C)c4)cc3)cc2)cc1C, which logKi is on record?
**A.** Its logKi is 1.98.

**Q.** With Cc1cc(C)c[n+](CCCCCCCCCCC[n+]2cc(C)cc(C)c2)c1 as the molecule, how does the logKi read?
**A.** The logKi was 1.81.

**Q.** Which logKi does the source give for c1cc(-c2ccc(CCC[n+]3ccc4c(c3)CCCC4)cc2)ccc1CCC[n+]1ccc2c(c1)CCCC2 here?
**A.** Its logKi is 1.2.

**Q.** For CN1CCCC1c1ccc[n+](CCCc2ccc(-c3ccc(CCC[n+]4cccc(C5CCCN5C)c4)cc3)cc2)c1 (stereo unspecified), which logKi is on record?
**A.** The logKi was 1.73.

**Q.** For Cc1cc[n+](CCCc2ccc(-c3ccc(CCC[n+]4ccc(C)cc4)cc3)cc2)cc1, which logKi is on record?
**A.** Its logKi is 1.63.

**Q.** Which logKi does the source give for OCCCc1ccc[n+](CCCc2ccc(-c3ccc(CCC[n+]4cccc(CCCO)c4)cc3)cc2)c1 here?
**A.** The logKi was 1.86.

**Q.** For CCCCc1ccc(CCCC[n+]2ccc(C)cc2)cc1, which logKi is on record?
**A.** Its logKi is 2.69.

**Q.** With Cc1ccc[n+](CCC#Cc2ccc(C#CCC[n+]3cccc(C)c3)cc2)c1 as the molecule, how does the logKi read?
**A.** The logKi was 0.595.

**Q.** With Cc1cccc[n+]1CCCc1ccc(-c2ccc(CCC[n+]3ccccc3C)cc2)cc1 as the molecule, how does the logKi read?
**A.** The logKi was 2.

**Q.** With c1ccc2c(c1)ccc[n+]2CCCCCC[n+]1cccc2ccccc21 as the molecule, how does the logKi read?
**A.** Its logKi is 1.26.

**Q.** Which logKi does the source give for Cc1cc[n+](CCCCCCCCCCCC[n+]2ccc(C)cc2)cc1 here?
**A.** Its logKi is 1.93.

**Q.** Which logKi does the source give for CCCCC#CCCCCCC[n+]1ccc(C)cc1 here?
**A.** The logKi was 2.58.
